Residues, ends and D or L forms follow the SMILES beside them. *: point of attachment. Cbz = O=C(OCc1ccccc1)*
Going from `COc1ccc2ccc(N3C(=O)c4ccccc4C3OC(=O)COCC(C)C)nc2n1` (configuration not stated) to `CC(=O)Nc1cccc(Oc2ccn3nc(-c4ccccc4)c(-c4ccc(=O)n(C(C)C)n4)c3c2)c1`, the melting point rises from 114 °C to 178 °C.

First: Cc1cc(C)c(Nc2nc(C)ccc2S(=O)(=O)c2ccc(OCc3cccc(C#N)c3)cc2)c(C)c1
Second: Cc1c(NC(=O)c2ccc(OCc3ccc(F)cc3)cc2)ccc2cc(CN3CCCC3)cnc12
The melting point of the first is lower: 155 to 158 °C for the first, 177 to 178 °C for the second.

First: COc1ccc2c(c1)C(C(=O)N(Cc1ccc(Cl)cc1)c1ccc(C(C)C)cc1)CCC2 (configuration not stated)
Second: COc1cc(C)c2c(c1)c1c(n2Cc2ccc(Cl)cc2)C(CC(=O)O)CCC1 (configuration not stated)
The melting point of the first is lower: 87 to 88 °C for the first, 188 °C for the second.

Compared with `CN1C(=O)CC[C@]2(C)c3ccc(Sc4nc5c(Cl)cccc5s4)cc3CC[C@@H]12`, `O=C1CCCc2ccc(OCCCCN3CCN(c4cccc5c4OCC5)CC3)nc2N1` is lower in melting point: 207 to 209 °C for the first, 176 to 177 °C for the second.

First: O=c1[nH]c2cc(Br)c(F)c([N+](=O)[O-])c2[nH]c1=O
Second: Cc1nc2c([N+](=O)[O-])cc(S(=O)(=O)N(C)C)cc2n1C
The melting point of the first is higher: 316 to 321 °C for the first, 194 to 196 °C for the second.

First: NC1CSC(c2cccs2)CNC1=O (configuration not stated)
Second: BrCc1ccc2nc(-c3cccs3)ccc2c1
The melting point of the first is higher: 157 °C for the first, 95 °C for the second.

Compared with `CCCC(=O)c1cnn(C)c1S(N)(=O)=O`, `CCCc1ccnc(C(=O)O)c1N` is higher in melting point: 97 to 99 °C for the first, 185 to 188 °C for the second.

First: CC(C)(C)[Si](OCc1ccc([N+](=O)[O-])cc1)(c1ccccc1)c1ccccc1
Second: COc1cc(C(=O)c2cccnc2)ccc1OCc1ccccc1
The melting point of the first is higher: 80 to 81 °C for the first, 76 °C for the second.

First: CCOC(=O)c1c(SCc2ccc(OC)cc2)[nH]c2cc(Cl)c(F)cc2c1=O
Second: CCOC(=O)C(O)CCc1ccc(OCCc2nc(-c3ccccc3)oc2C)cc1 (configuration not stated)
The melting point of the first is higher: 142 °C for the first, 67 to 68 °C for the second.

First: CC(C)(C)OC(=O)NC(Cc1ccccc1)C(O)CNCC(O)C(CCc1ccccc1)NC(=O)OCc1ccccc1 (configuration not stated)
Second: COC(=O)C(Cc1ccccc1)NC(=O)C(Cc1ccccc1)NC(=O)CNC(=O)OCc1ccccc1 (stereo not drawn) (Cbz-Gly-Phe-Phe-OMe; configuration not given here)
The melting point of the first is higher: 150 to 151 °C for the first, 122 to 124 °C for the second.

First: CNc1c(C(=O)OC)c(C)nc2c1c1ccccc1n2C
Second: CC(=O)Nc1nc(-c2cccc3ccccc23)co1
The melting point of the first is lower: 90 to 91 °C for the first, 188 to 190 °C for the second.

Compared with `OC1CSC(Oc2cccc(-c3cncnc3)c2)C(O)C1O` (configuration not stated), `OC1CSC(Oc2cc(-c3ccc(F)nc3)cc(F)c2F)C(O)C1O` (configuration not stated) is lower in melting point: 241 °C for the first, 179 °C for the second.

Compared with `Cc1nn(C)c(NCC(C)(C)C)c1NCc1ccc(F)cc1`, `Cc1cc(C2=Nn3cnnc3SC2c2ccc(F)cc2)nc2c1OCC(=O)N2` (configuration not stated) is higher in melting point: 32 to 39 °C for the first, 256 to 257 °C for the second.

First: CCn1c(=O)c2[nH]c(C(C)C)nc2n(Cc2ccc(OC)c(OC3CCCC3)c2)c1=O
Second: CCCc1nc(Nc2cccc(C(C)C)c2)nc(NC2CCN(S(C)(=O)=O)CC2)n1
The melting point of the first is higher: 208 to 209 °C for the first, 80.4 to 81.8 °C for the second.

Compared with `CCOC(=O)C1(Nc2ccc(Oc3ccccc3)cc2)CC1`, `OCc1cnc(Oc2ccccc2)s1` is lower in melting point: 80 °C for the first, 50 °C for the second.

First: CCCCc1nn(-c2cc(NC(=O)COCC)ccc2Cl)c(=O)n1Cc1ccc(-c2ccccc2S(=O)(=O)NC(=O)OC(C)(C)C)cc1F
Second: CS(=O)(=O)Nc1nccc(Oc2ccc3c(C(=O)Nc4ccc(F)c(C(F)(F)F)c4)cccc3c2)n1
The melting point of the first is lower: 100 to 102 °C for the first, 246 °C for the second.

First: Cc1nn(C)c2c(Cl)ncnc12
Second: Nn1ccnc1-c1ccc(Cl)cc1
The melting point of the first is lower: 92 to 95 °C for the first, 210 °C for the second.

Compared with `Cc1ccnc(N2CCN(CCCC3CNc4c(ccc(C)c4-c4cc(C)c(O)c(C)c4)O3)CC2)c1` (configuration not stated), `CC1(C)CC(=O)Nc2c(CCN3CCN(C4=NS(=O)c5ccccc54)CC3)cc(F)cc21` (configuration not stated) is higher in melting point: 110 °C for the first, 235 °C for the second.

First: O=C(OCc1cccnc1)c1ccc(F)cc1
Second: O=C(O)c1ccc2c(COc3cccnc3)csc2c1
The melting point of the first is lower: 142 to 143 °C for the first, 248 to 250 °C for the second.

Compared with `COC(=O)CCC(CS(=O)(=O)c1ccc2ccccc2c1)C(=O)N(CCC1CCCCC1)CCC1CCCCC1` (configuration not stated), `O=C(CCc1cc(C2CCCCC2)c(O)c(C2CCCCC2)c1)OCCCCCCOC(=O)CCc1cc(C2CCCCC2)c(O)c(C2CCCCC2)c1` is lower in melting point: 116 to 118 °C for the first, 113 to 115 °C for the second.

Compared with `CCOC(=O)c1nc2sc3c(c2c(=O)[nH]1)CCCC3`, `CC(C(=O)OC1(C)CCCCC1)c1ccc2nc(N)sc2c1` (configuration not stated) is lower in melting point: 207 to 209 °C for the first, 165 to 167 °C for the second.

First: Nc1nc2ccccc2c2c1nc(CCCOc1ccccc1)n2CCCNC(=O)c1ccccc1
Second: Cc1c(/C=C/C(=O)c2cccc3ccccc23)ncn1C(c1ccccc1)(c1ccccc1)c1ccccc1
The melting point of the first is higher: 192 to 194 °C for the first, 184 to 186 °C for the second.

First: CC[C@@H]1CCCN1CCc1cc2cc(-c3ccc(C#N)cc3)ccc2o1
Second: COC(=O)[C@@H](Cc1ccccc1)NC(=O)OCc1cc2cc(-c3ccsc3)ccc2o1
The melting point of the first is higher: 147 °C for the first, 105 to 106 °C for the second.

Compared with `O=c1[nH]ncc2[nH]c(-c3ccc(OC(F)F)c4c3C=CC(C3CC3)O4)cc12` (configuration not stated), `CN(C)c1ccc(CCc2ccc3c(=O)[nH]ncc3c2)cc1` is higher in melting point: 232 to 242 °C for the first, 257 to 259 °C for the second.

First: c1cc2c3c(c1)nc(N1CCOCC1)n3CCC2
Second: O=C1OCCN1N=C1CCOc2ccccc21
The melting point of the first is lower: 93 to 94 °C for the first, 105 to 108 °C for the second.

First: CCN(c1ccc2c(c1)OCO2)c1nc(=O)c2cccnc2s1
Second: CC(CN(C)C)On1c(=O)nc(-c2ccc3c(c2)OCO3)c2cc3c(cc21)OCO3 (configuration not stated)
The melting point of the first is higher: 184 to 185 °C for the first, 160 to 165 °C for the second.

Compared with `Cc1ccc(C(=S)c2ccc3n2CCCC3C(=O)O)cc1` (configuration not stated), `COc1ccc(-c2cc(=O)c(C(=O)O)cn2C2CC2)cc1` is lower in melting point: 174 to 175 °C for the first, 159 to 161 °C for the second.

First: OCc1ccc(-c2ccccc2-c2nnn(C(c3ccccc3)(c3ccccc3)c3ccccc3)n2)cc1
Second: O=C(O)COc1ccc(-c2nn(-c3ccccc3)c3ncccc23)cc1
The melting point of the first is lower: 168 to 170 °C for the first, 220 to 222 °C for the second.

Compared with `Cc1nc2c(O)c(CC[C@@H](O)c3ccccc3)c(C(=O)N(C)C)cc2n1COCC[Si](C)(C)C`, `CCOC(=O)C(C(=O)N(C)C)=C(OC(=O)c1ccccc1)c1ccc(Cl)cc1Cl` is lower in melting point: 142 to 143 °C for the first, 106 °C for the second.

First: O=[N+]([O-])c1ccc(N2CCSCC2)cc1
Second: Fc1ccc(N2CCN(Cc3cn4cc(Br)ccc4n3)CC2)cc1
The melting point of the first is higher: 142 to 144 °C for the first, 110 to 112 °C for the second.

First: Cc1ccc2c(c1)OC(CCO)C(=O)N2 (configuration not stated)
Second: COc1ccc2c(c1)CCC(C(O)C(=O)O)C2=O (configuration not stated)
The melting point of the first is lower: 143 to 144 °C for the first, 212 to 214 °C for the second.

First: COc1cccc(NC(=O)C(C#N)C(=O)c2nn(-c3ccccc3)c3c2Cc2ccccc2-3)c1 (configuration not stated)
Second: CC(=O)Nc1nc(C)c(CCN2CCN(C(c3ccccc3)c3ccccc3)CC2)s1
The melting point of the first is higher: 280 to 284 °C for the first, 166 to 168 °C for the second.

Compared with `O=C(O)C1=Cc2cc(Cl)c(Cl)cc2OC1C(F)(F)F` (configuration not stated), `CN(C)S(=O)(=O)c1cc2c(c(Cl)c1Cl)OC(C(=O)O)C2` (configuration not stated) is lower in melting point: 196 to 198 °C for the first, 154 °C for the second.

First: C#CCOc1ccccc1S(N)(=O)=O
Second: CC(C)CNC(=O)C(C)NC(=O)OCc1ccccc1 (configuration not stated)
The melting point of the first is higher: 143 to 145 °C for the first, 109 to 111 °C for the second.

Compared with `O=c1c2ccc(OCCCN3CCN(Cc4ccc(Cl)cc4)CC3)cc2oc2nn[nH]c12`, `CCOCCn1cc2c(C3C(=O)Nc4ccc(Cl)cc43)nc(NCCN3CCOCC3)nc2n1` (configuration not stated) is higher in melting point: 215 to 216 °C for the first, 293 to 294 °C for the second.

Compared with `O=C(O)Cc1ccc(Sc2ccc(O)cc2)cc1`, `ON=C(Cc1ccccc1)c1ccc(Cl)c(Cl)c1` is lower in melting point: 163 to 165 °C for the first, 81 to 82 °C for the second.

First: COC(=O)c1nc(Cl)c(Cl)c(N)c1I
Second: COC(=O)c1ccc(C2CNN=C2c2ccc(Cl)cc2)cc1 (configuration not stated)
The melting point of the first is lower: 122 to 123 °C for the first, 155 to 159 °C for the second.

Compared with `CC(CCOc1c(-c2ccc(S(C)(=O)=O)cc2)cnn(-c2ccc(F)c(F)c2)c1=O)C(F)(F)F` (configuration not stated), `COc1ccc(CSc2nnc(-c3ccc4ncccc4c3)o2)cc1C(F)(F)F` is higher in melting point: 126 to 128 °C for the first, 130 to 131 °C for the second.

Compared with `COc1cc(Nc2c(C#N)cnc3cc(-c4coc(C=O)c4)c(OC)cc23)c(Cl)cc1Cl`, `O=C1CN=C(c2cccc(Cl)c2)c2cc(C(=O)c3ccc(Cl)cc3)ccc2N1` is higher in melting point: 238 to 241 °C for the first, 265 °C for the second.

First: N#Cc1[nH]c(-c2ccc(Cl)cc2)c(C#N)c1Br
Second: CC1CC(NC=O)=NN1c1ccc(Cl)cc1 (configuration not stated)
The melting point of the first is higher: greater than 225 °C for the first, 112 to 113 °C for the second.

Compared with `O=[N+]([O-])c1cc(-c2ccco2)ccc1Nc1cccc(-n2ccnc2)c1`, `O=C(Nc1nc(-c2ccco2)c(-c2ccncc2)s1)c1ccnc(CN2CCC(O)CC2)c1` is higher in melting point: 147 to 149 °C for the first, 203 to 208 °C for the second.

First: Cc1cc(Br)cnc1CCCCNC1=NS(=O)N=C1NCc1ccccc1 (configuration not stated)
Second: CNC(=C[N+](=O)[O-])NCCOc1cccc(CCCN(C)C)c1
The melting point of the first is higher: 175 to 176 °C for the first, 82 to 83.5 °C for the second.

First: CCCCNC(=O)NS(=O)(=O)c1ccc(CCNC(=O)N2CCC(C)CC2=O)cc1 (configuration not stated)
Second: CCC12CCC3c4ccc(OC)cc4CCC3C1CC(=CN(C)C)C2=O (configuration not stated)
The melting point of the first is higher: 159 to 161 °C for the first, 157 to 159 °C for the second.

First: CC1(C)CC(N2CCCCCC2=O)CC(C)(C)N1CCO
Second: CC1CC2C3CCC4=CC(=O)C=CC4(C)C34OC4CC2(C)C1(O)C(=O)CO (configuration not stated)
The melting point of the first is lower: 141 to 142 °C for the first, 238 to 240 °C for the second.

First: N=C(Nc1ccc(Cl)cc1)Nc1ncccc1OCc1ccc(F)cc1F
Second: CC(=O)Nc1c(C(=O)c2ccncc2)[nH]c2cc(Cl)ccc12
The melting point of the first is lower: 182 to 184 °C for the first, 262 to 264 °C for the second.

First: CN1CCC(O)(C(c2cc(Cl)ccc2F)n2cccc2)CC1 (configuration not stated)
Second: CC(=NNc1ccc(Cl)c2c1CC(C)O2)C(=O)O (configuration not stated)
The melting point of the first is lower: 124 to 125 °C for the first, 155 to 157 °C for the second.

First: CCCCCCCC[C@]1(C)OO[C@@H]2C[C@H]1CC(=O)[C@@H]2C
Second: CCCCCCCCCCCc1nc2c(O)c(Cl)c(C)c(Cl)c2cc1CCCCCCCCCC
The melting point of the first is lower: 27 °C for the first, 54.5 to 56 °C for the second.

First: Cc1cc(Cc2cc(C(C)(C)CC(C)(C)C)cc(C(C)(C)CC(C)(C)C)c2O)c(O)c(-n2nc3ccccc3n2)c1
Second: CN(C(=O)OC(C)(C)C)[C@H]1CC[C@H](/C=C/CCl)CC1
The melting point of the first is higher: 138 °C for the first, 42.5 to 43.9 °C for the second.

Work on `N#CCc1nnc(N)s1` yielded a melting point of 163 to 164 °C.

— a melting point compilation (Tetko et al.; mined from patent text by program, amines drawn as free bases though some values may be those of a salt)
